Measurements taken from article PMC8047011, “Enantiomers of 2-methylglutamate and 2-methylglutamine selectively impact mouse brain metabolism and behavior” (Scientific Reports, 2021).

Key:
[1] = test system: murine primary cerebral cortical neuron cultures; test: Neuronal transport and metabolism of 2MeGln; format: cell-based, mouse; settings: 1 mM substrate, 2 h, 37 °C; data not shown
Method: The procedure was adapted from an existing protocol. Wild-type (WT) C57BL/6J mating pairs were housed according to Stanford IACUC protocol. On day P0, pups were euthanized and brains dissected in cold HBSS (without Ca^2+ or Mg^2+). The forebrain was microdissected to isolate the cortex and hippocampus. These brain regions were minced in cold HBSS before trypsinization at 37 °C for 9 min, followed by trituration, through 2 glass polished Pasteur pipettes. The resulting cell suspension was passed through a 100 μm filter to isolate single cells which were sedimented at 250g for 5 min. The cell pellet was then resuspended in complete Neural Basal Media (Neural Basal Media + Glutamax + B-27 Plus Supplement + Pen/Strep) + 10%FBS, counted using a hemocytometer and plated at 1 × 10^6 cells per mL into a 24 well plate (1 mL per well) coated with poly-D-lysine and laminin. Cultures were grown at 37 °C/5% CO2 in a tissue culture incubator. Media was exchanged 50% on day 1 in vitro (1DIV) with fresh complete Neural Basal Media without FBS and thereafter every other day with the same media. On 3DIV the media was spiked with 2 μM AraC to limit glial growth. On 10DIV the media was completely replaced with 500 μL Neural Basal Media containing B-27 Plus Supplement + Pen/Strep without added Glutamax but instead containing 1 mM substrate at 37 °C for 2 h. […]

[2] = Metabolism in synaptosomes (GABA shunt, glutamate-glutamine cycle); format: in vitro ADME, mouse; settings: mouse, mouse cerebral synaptosomes; synaptosomes preloaded with 100 μM substrate, 37 °C; estimated; read-out: Synaptosomal concentration half life
Method: (§1) To each tube, a 5 μL aliquot of a test compound solution (final concentration 100 μM) in Buffer KRP or Buffer KRP alone were added. The samples were incubated for 15 min at 37 °C, briefly chilled on ice, and then immediately centrifuged and washed twice by resuspension-centrifugation with Buffer S (0.5 mL). The pellets were then resuspended in Buffer KRP (500 μL). Samples were then immediately centrifuged or incubated for 5, 10, 15, 20, 25 or 30 min at 37 °C and then centrifuged and washed by resuspension-centrifugation with Buffer S (0.5 mL). Resulting pellets were resuspended in 170 μL of 0.1% aqueous formic acid, mixed with 330 μL of ACN. To each tube, 5 μL of 2MeGlu solution (final concentration 100 μM) in Buffer KRP or Buffer KRP alone were added. The samples were incubated for 15 min at 37 °C, briefly chilled on ice, and then immediately centrifuged and washed twice by resuspension-centrifugation with Buffer S (0.5 mL). The pellets were then resuspended in Buffer KRP (200 μL). Samples were then kept on ice or incubated for 10, 20, 30, 40 or 50 min at 37 °C and then chilled on ice. Then all samples were centrifuged, 200 μL of supernatants were collected, and the pellets were suspended in 200 μL of 80% ACN. Supernatants and pellet suspensions were diluted with 250 μL of ACN and 50 μL of 10 μM d[…] in water as internal standard.

[3] = test system: mouse cerebral synaptosomes; test: as above; format: in vitro ADME; settings: synaptosomes preloaded with 100 μM substrate
Method: as §1

[4] = target: human glutamine synthetase (Homo sapiens, UniProt P15104); design: method as in PMID 5320388; settings: identical conditions with L-Glu; cited from earlier work
[5] = test system: primary murine cerebral astrocytes; test: Astrocyte transport and metabolism of 2MeGlu; format: cell-based, mouse; settings: 1 mM substrate, 2 h, 37 °C
Method: Primary astrocytes from C57Bl/6 mouse brain were cultured in complete astrocyte growth medium at 37 °C at 5% CO2 on 96 well plates. Cells were exposed to 1 mM compound in 100 μL medium for 2 h at 37 °C. Supernatants were collected, centrifuged at 2500g for 10 min at 4 °C. 10 μL aliquots were diluted with 190 μL 60% ACN containing 10 μM Glu-d5 and Gln-d5. Cells were quickly washed with 250 μL cold PBS twice and suspended in 200 μL of 60% ACN containing 10 μM Glu-d5 and Gln-d5. All samples were shaken at 1000 rpm for 5 min and then stored at – 80 °C.

[6] = test system: mouse cerebral synaptosomes; test: Synaptosomal neurotransmitter uptake assay; format: cell-based; settings: 10 μM substrate, 37 °C
Method: Mouse cerebral synaptosomes were prepared according to published methods. See Supplementary Methods for details. 500 μL aliquots of the synaptosome suspension were transferred to pre-chilled microcentrifuge tubes for experiments. Centrifugations were at 8000g for 4 min at 4 °C, unless stated otherwise, and all samples were stored at − 80 °C.
To each tube, 5 μL of a test compound solution (final concentration 10 μM) in Buffer KRP or Buffer KRP alone were added. Samples were incubated at 4 °C or 37 °C for 1, 10, or 30 min and then immediately centrifuged and washed twice by resuspension–centrifugation with Buffer S (0.5 mL). Resulting pellets were resuspended in 170 μL of 0.1% aqueous formic acid and mixed with 330 μL of ACN.
Buffer S (4 mL, × 1) and Buffer KRP (2 mL, × 3). The resulting pellet was resuspended in 3 mL of Buffer KRP and filtered on Ultrafree-CL 5 μm PVDF centrifugal device (1,000g for 4 min at 4 °C). The filtrate was diluted to 15 mL with ice cold Buffer KRP and kept on ice. The synaptosome preparation was used immediately in the following experiments.
Synaptosomal neurotransmitter uptake assay
96-well plate experiments: 250 μL aliquots of the synaptosome suspension were transferred to two 0.8-mL 96 well plates, one on ice (0 °C samples only) and one in a thermoblock (37 °C samples only), and equilibrated for 10 min. 5 μL of a test compound (0.5 mM; final concentration: 10 μM) in Buffer KRP or Buffer KRP blank were added 10, 20 or 30 min before the incubation termination. “0 min” samples were prepared by placing the test compound solution in a separate pre-chilled V-shape bottom 2-mL 96 well plate; at the end of incubation 200 μL aliquots of all samples were transferred to the 2-mL 96 well plate and centrifuged (2,500g for 15 min at 4 °C) immediately. The resulting pellets were rinsed with Buffer KRP, followed by centrifugation, twice, then resuspended in 200 μL of 60% ACN containing 2.5 μM Glu-d5 as internal standard and stored at –80 °C until analysis. […]

[7] = test system: mouse cerebral synaptosomes; test: Potassium-induced neurotransmitter release assay; format: cell-based; settings: preincubated with 100 μM substrate 15 min 37 °C; high-potassium KRP buffer
Method: To each tube, 2.5 μL of a test compound solution (final concentration 100 μM) in Buffer KRP or Buffer KRP alone were added. Samples were incubated for 15 min at 37 °C, briefly chilled on ice, and then immediately centrifuged and washed twice with Buffer KRP. The resulting pellets were then resuspended in either Buffer KRP (500 μL) or Buffer K-KRP (500 μL). Samples were immediately centrifuged or incubated for 5, 10 or 15 min at 37 °C, then centrifuged and washed with Buffer KRP. Resulting pellets were resuspended in 400 μL of 60% ACN containing 2.5 μM Glu-d5 and 2.5 μM Gln-d5 as internal standards.

human glutaminase GLS1 = target: T1, human glutaminase GLS1 (Homo sapiens, UniProt O94925); test: Catalysis of 2MeGln hydrolysis by GLS1 glutaminase; format: biochemical
T1 sequence (O94925 55-669): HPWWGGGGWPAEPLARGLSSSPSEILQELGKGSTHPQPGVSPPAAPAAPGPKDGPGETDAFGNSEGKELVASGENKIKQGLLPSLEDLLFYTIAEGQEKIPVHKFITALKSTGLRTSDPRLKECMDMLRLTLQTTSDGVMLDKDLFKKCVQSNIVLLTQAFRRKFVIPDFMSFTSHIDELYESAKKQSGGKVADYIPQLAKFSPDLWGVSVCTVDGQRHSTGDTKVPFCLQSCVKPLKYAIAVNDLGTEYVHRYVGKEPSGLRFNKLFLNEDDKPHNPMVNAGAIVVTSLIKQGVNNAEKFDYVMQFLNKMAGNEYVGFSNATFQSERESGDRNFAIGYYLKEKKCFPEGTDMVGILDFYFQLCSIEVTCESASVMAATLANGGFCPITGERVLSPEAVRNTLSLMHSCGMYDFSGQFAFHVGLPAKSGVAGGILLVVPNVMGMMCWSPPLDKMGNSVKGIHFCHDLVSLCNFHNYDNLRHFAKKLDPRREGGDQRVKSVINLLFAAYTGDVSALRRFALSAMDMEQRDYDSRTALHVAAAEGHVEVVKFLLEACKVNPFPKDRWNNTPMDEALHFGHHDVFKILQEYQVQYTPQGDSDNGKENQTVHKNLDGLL
Method: The procedure was adapted from an existing protocol. To a reaction mixture in a 1.5 mL microcentrifuge tube containing 10 mM rac-2MeGln or L-Gln-^13C2 in 100 mM phosphate pH 7.4 buffer made in 20% atom ^18O water, recombinant GLS1 (final concentration: 5 ng/mL) was added. The tubes were incubated in a preheated thermomixer at 37 °C and periodically shaken at 600 rpm (30 s on, 30 s off). 5 μL aliquots were collected in triplicate every 5 min and immediately diluted with 195 μL of cold 60% ACN containing 10 μM Glu-d5 and Gln-d5 as internal standards in a 96 well plate. After collecting all samples, the plate was shaken at 1000 rpm for 5 min at room temperature, and then stored at − 80 °C. Before analysis the plate was thawed and 10 μL aliquots of the extracted reaction mixtures were diluted with 190 μL of 90% acetonitrile.
The quantification of the newly formed 2MeGlu in the presence of the preexisting trace amounts was performed in the following way. Peak area ratio of Glu-^13C2 to Glu-^13C2^18O was calculated in all samples containing Glu-^13C2. The mean ratio value was then applied to calculate the hypothetical peak area of the newly formed 2MeGlu based on the directly measured 2MeGlu-^18O peak area. The ratio of the newly formed 2MeGlu peak area and the total 2MeGlu peak area was applied to calculate the concentration of the newly formed 2MeGlu from the total 2MeGlu concentration determined directly using the calibration curve.

Sequence of human glutamine synthetase (P15104 whole entry): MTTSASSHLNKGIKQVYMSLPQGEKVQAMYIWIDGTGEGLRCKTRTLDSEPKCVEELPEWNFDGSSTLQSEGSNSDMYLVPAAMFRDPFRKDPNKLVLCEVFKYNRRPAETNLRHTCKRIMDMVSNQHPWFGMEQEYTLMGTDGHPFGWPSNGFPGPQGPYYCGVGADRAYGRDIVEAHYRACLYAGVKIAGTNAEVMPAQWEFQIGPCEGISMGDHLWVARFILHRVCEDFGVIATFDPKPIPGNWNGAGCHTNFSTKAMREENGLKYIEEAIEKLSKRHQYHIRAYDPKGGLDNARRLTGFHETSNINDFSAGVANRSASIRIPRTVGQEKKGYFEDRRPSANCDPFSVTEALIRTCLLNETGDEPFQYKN

NC(=O)CC[13C@H](N)[13C](=O)O [L-[1,2-^13C]Gln]
Intracellular [1,2-13C]Gln relative to 2MeGln in neurons [1]: twofold lower | Intracellular [1,2-13C]Glu relative to 2MeGlu in neurons [1]: over fivefold lower

CC(N)(CCC(=O)O)C(=O)O (racemic) [rac-2MeGlu, 2-methylglutamate]
half-life at 100 μM [2]: 21 min | Metabolism along the GABA shunt in synaptosomes [3]: not associated with the concurrent appearance of 4APA or any other 2Me analogue within the GABA shunt | Inorganic phosphate released with GS and ATP relative to L-Glu [4]: 50%

N[C@@H](CCC(=O)O)C(=O)O [L-[1,2-^13C]Glu, reference compound]
Extracellular concentration of amide product (2MeGln or [1,2-13C]Gln), astrocyte cultures [5]: 5.0 nmol/well | Intracellular concentration of amide product (2MeGln or [1,2-13C]Gln) in astrocytes [5]: 0.26 nmol/well

CC(N)CCC(=O)O (racemic) [rac-4APA, 4-aminopentanoic acid]
Transport into synaptosomes [6]: transported into synaptosomes | Potassium-induced release from preloaded synaptosomes [7]: exhibited high potassium concentration-dependent release

C[C@](N)(CCC(N)=O)C(=O)O [(S)-2MeGln, (S)-2-methylglutamine]
Substrate for GLS1 (human glutaminase GLS1): substrates of GS and GLS1, respectively

NC(=O)CC[C@H](N)C(=O)O [Gln, L-glutamine, reference compound]
Apparent reaction rate of GLS1 hydrolysis (human glutaminase GLS1; 10 mM substrate, 5 ng/mL enzyme, phosphate pH 7.4): 65 µM/min
